Entries after “also recorded” stand apart in the source; their conditions may differ.
What was measured:
[1] = Powder dissolution study in 50% v/v aqueous ethanol; format: physicochemical; details: 25° C.; for solid form of undissolved solid at end of dissolution study (DSC and XRPD): 3-day dissolution study; for initial dissolution rate (in words): initial time period
Protocol: As an alternative means to compare the solubilities of the three ITZ polymorphs, the dissolution-time profiles of these crystal forms were determined in the same solvent system. According to the Noyes Whitney equation, the dissolution rate per unit surface area of a drug solid in contact with the dissolution medium is directly proportional to its solubility under sink conditions at a constant temperature. Thus the amount of drug dissolved initially over a defined time period can provide an indirect measure of the drug solubility. […] The concentrations of Form I and Form II in dissolution media increased gradually with time and plateaued off after ˜10 h. The maximum drug concentration attained was 2-3 fold higher for Form II than for Form I, consistent with the equilibrium solubility data.
All powder samples for dissolution testing were first sieved through an 80 mesh-screen (180 μm), and only particles with sizes smaller than 180 m were used. An accurately weighed amount (20±0.2 mg) of each ITZ polymorph or ITZ amorphous powder (made by rapid melt quenching) was dispersed in 25 ml 50% v/v aqueous ethanol with continuous stirring at 100 rpm in a round bottom flask, equilibrated inside a temperature-controlled incubator (Lovibond TC 135S, Tintometer GmbH, Dortmund, Germany) at 25° C. At appropriate time intervals, a 400 μl aliquot of each solution was withdrawn, filtered through 0.22 m membrane filters, and diluted with a suitable amount of 50% v/v aqueous ethanol prior to UPLC analysis. Each sample withdrawn was replaced by the same volume of fresh dissolution medium. The method of drug content detection was the same as described in the preceding section. At the end of the dissolution study, the undissolved solid left in the medium was checked by DSC or XRPD for possible polymorphic transition.

[2] = format: physicochemical
Protocol: Solubilities of different polymorphs were determined by adding excess drug to 10 ml of 50% v/v aqueous ethanol in glass vials, followed by equilibration with occasional shaking at different temperatures (4° C., 10° C., 20° C., 25° C., 34° C., 40° C.) in a temperature-controlled incubator (Lovibond TC 135S, Tintometer GmbH, Dortmund, Germany) for 3 days (i.e., until equilibrium was reached). The solution was then filtered and the drug content was analyzed by UPLC (Agilent 1200 Infinity LC systems) using a UHPLC ZORBAX Eclipse Plus C18 column (2.1 mm×50 mm; 1.8 m). The mobile phase consisted of acetonitrile and 0.1% formic acid (60:40 v/v) eluted at 1 ml/min. Quantification was based on the peak area measurement by UV absorption at λ=260 nm. After the study, the residual solid in each glass vial was analyzed by DSC and XRPD to check for possible polymorphic transitions during the study. Solubility data were expressed in mole fraction as follows:
[formula] where n1 is the number of moles of solvent, and n2 is the number of moles of solute.
In addition to the enthalpy of fusion, equilibrium solubility and the related enthalpy of solution in a given solvent system can offer useful information on the bonding strength within the crystal lattice of a particular polymorph. […] According to the van't Hoff equation, the plot should be linear if the enthalpy of solution term in the equation is truly temperature-independent. […] The extrapolation of two linear plots yielded a transition temperature, Tr, of […] at the intersection point for the two polymorphs. The enthalpy, ΔHII→I, and entropy, ΔSII→I, of polymorphic transition from Form II to Form I were estimated to be −4470.8 J/mol and −5.7 J/mol·K from the slope of the log solubility ratio plot in FIG. 6B and from the relation, ΔSII→I=ΔHII→I/Tr (i.e., when ΔGII→I=0), respectively. The free energies of polymorphic transition, ΔGII→I, from Form II to Form I at 25° C. and 37° C., as defined by the equation, ΔGII→I=ΔHII→I−TΔSII→I, were calculated to be −2771 J/mol and −2703 J/mol, respectively. The solubility of Form II was about 2-3 fold higher than that of Form I in the temperature range studied.

[3] = Solid-state physical stability of Form III (annealing, ambient handling, grinding; XRPD); format: physicochemical
Protocol: X-ray powder diffraction (XRPD) data were collected using a powder X-ray diffractometer (Philips, Xpert PRO, The Netherlands) equipped with a Cu radiation source operating at 40 kV and […]. Sample was uniformly packed into a custom-made aluminum holder with a 2 mm depth and scanned from 20 of 3° to 400 at a rate of 4°/min with a step size of 0.017°.
FIGS. 2A, 2B and 2C show the XRPD patterns for the three different growth zones, respectively. […] The third zone, termed Form III, was characterized by signature peaks at approximately 11.9°, 16.7°, 17.4°, 18.7°, 19.1°, 20.0°, and 21.1°, indicative of a new crystal form, which has not been reported previously. […] The morphologies of Form I and II were similar and almost indistinguishable. Form III only existed in the bulk of recrystallized ITZ (FIG. 1C). All of the three forms grew as spherulites at temperatures below 110° C. (FIG. 1D). At temperatures above 110° C., Forms I and II grew as separate faceted crystals (FIGS. 1E and 1F), whereas Form III transformed to Form II. The latter was further substantiated by annealing Form III at 100° C. and 120° C.
Samples of ITZ polymorphs recrystallized from melt on glass coverslips were first examined by HSM. […] (FIGS. 3B and 3C). Further heating led to melting of Form II at 158° C. (FIG. 3D), and eventually melting of Form I at around 167° C. (FIG. 3E). To gain further insight into the thermal behaviors and melting properties of the different polymorphs, DSC analyses were conducted and the respective thermograms are presented in FIG. 4A. Form I melted at 165.1° C., which is in excellent agreement with the melting point of the commercial ITZ form (Form I). The melting point of Form II (155.7° C.) is the same as that described previously. The measured molar enthalpy of fusion, ΔH^f, of Form II was 60.6±1.7 kJ/mol, which is less than that (ΔH^f=68.6±1.5 kJ/mol) of Form I. The molar entropy of fusion, ΔS^f, of Form II (141±4 J/mol·K) was also less than that of Form I (ΔS^f=156±4 J/mol·K). […] At low scanning rate, e.g., 10° C./min, a small exothermic peak appeared at ˜120° C. (which possibly reflects the transition of Form III to Form II), followed by an endotherm at ˜156° C., corresponding to the melting of Form II. At higher heating rates, e.g., 40° C./min, the melting endotherm of Form III started to emerge at 119.4° C., followed by a relatively small endotherm at a higher temperature, which can be attributed to the melting of recrystallized Form II from the Form III melt. Due to the co-existence of Form III and/or its melt, this Form II was seen to melt at a lower temperature than its phase pure counterpart (m.p. ˜156° C.). […]

[4] = pH 7.4; cited from earlier work

SMILES	time at which concentration in dissolution medium plateaued off [1] [h]	molar enthalpy of solution [2]	maximum/peak drug concentration relative to that of Form I [1]	solid form of undissolved solid at end of dissolution study (DSC and XRPD) [1]	initial dissolution rate (in words) [1]	other results
CCC(C)n1ncn(-c2ccc(N3CCN(c4ccc(OC[C@H]5CO[C@](Cn6cncn6)(c6ccc(Cl)cc6Cl)O5)cc4)CC3)cc2)c1=O (mixture of isomers) [Form I, itraconazole]	~10	55.8 (±2.8) kJ/mol		maintained their original crystal structures; also recorded: remained unchanged		
CCC(C)n1ncn(-c2ccc(N3CCN(c4ccc(OC[C@H]5CO[C@](Cn6cncn6)(c6ccc(Cl)cc6Cl)O5)cc4)CC3)cc2)c1=O (mixture of isomers) [Form II, itraconazole]	~10	51.3 (±2.9) kJ/mol	2-3 fold	maintained their original crystal structures; also recorded: remained unchanged		enthalpy, ΔHII→I, of polymorphic transition from Form II to Form I [2]: -1.0685 kcal/mol; entropy, ΔSII→I, of polymorphic transition from Form II to Form I [2]: −5.7 J/mol·K; transition temperature, Tr, of Form I and Form II [2]: 497.8 °C; solubility relative to that of Form I ([2]; 3 days): 2-3 fold
CCC(C)n1ncn(-c2ccc(N3CCN(c4ccc(OC[C@H]5CO[C@](Cn6cncn6)(c6ccc(Cl)cc6Cl)O5)cc4)CC3)cc2)c1=O (mixture of isomers) [Form III, itraconazole]			about 7 fold	converted to Form I	dissolved much more rapidly than the other two forms	time of peak drug concentration [1]: ~15 h; phase stability on annealing (XRPD) ([3]; 100° C. for 10 hours): no such phase transition; phase stability on annealing (XRPD) ([3]; 120° C. for 10 hours): conversion to Form II; crystal structure after grinding (XRPD) ([3]; grinding with pestle and mortar): remained unchanged in crystal structure; physical stability at ambient conditions ([3]; scraping from glass coverslip for XRPD analysis): stable at ambient conditions
CCC(C)n1ncn(-c2ccc(N3CCN(c4ccc(OC[C@H]5CO[C@](Cn6cncn6)(c6ccc(Cl)cc6Cl)O5)cc4)CC3)cc2)c1=O (mixture of isomers) [amorphous form, itraconazole]				converted to Form I	increased most rapidly	solid form of undissolved solid at end of dissolution study (DSC and XRPD) ([1]; listed as amorphous material): converted to Form I; dissolved drug concentration level after initial drop ([1]; after 50 h): equivalent to the equilibrium solubility of Form I
CCC(C)n1ncn(-c2ccc(N3CCN(c4ccc(OC[C@H]5CO[C@](Cn6cncn6)(c6ccc(Cl)cc6Cl)O5)cc4)CC3)cc2)c1=O (relative stereo) [ITZ, (2R,4S)-rel-1-(Butan-2-yl)-4-{4-[4-(4-{[(2R,4S)-2-(2,4-dichlorophenyl)-2-(1H-1,2,4-triazol-1-ylmethyl)-1,3-dioxolan-4-yl]methoxy}phenyl)piperazin-1-yl]phenyl}-4,5-dihydro-1H-1,2,4-triazol-5-one]						water-solubility [4]: 1 ng/mL

Reference: US9855248B2, “Polymorph of itraconazole with improved pharmaceutical properties” (The Chinese University of Hong Kong, priority 2016, dated 2018)
